# In ChEMBL document CHEMBL5705896 (ACS Chem Biol, 2013):
# Active and inactive are the calls of the source. The calls are words filed in the database; no cut-off is given here.
# Assays:
# [1] = Inhibition of full length human N-terminal his tagged ABL (2 to 1130 end residues) expressed in baculovirus expression system using ABLtide as substrate at 10 uM by mobility shift assay relative to control; conditions: condition weaver syndrome
# [2] = target: Fibroblast growth factor receptor 1 (Homo sapiens) (UniProt P11362); experiment: Inhibition of human cytoplasmic domain N-terminal GST tagged FGFR1 (398 to 822 end residues) expressed in baculovirus expression system using CSKtide as substrate at 10 uM by mobility shift assay relative to control
# [3] = target: Receptor-type tyrosine-protein kinase FLT3 (Homo sapiens) (UniProt P36888); experiment: Inhibition of human cytoplasmic domain N-terminal GST tagged FLT3 (564 to 993 end residues) expressed in baculovirus expression system using Srctide as substrate at 10 uM by mobility shift assay relative to control
# [4] = target: Vascular endothelial growth factor receptor 2 (Homo sapiens) (UniProt P35968); experiment: Inhibition of human cytoplasmic domain N-terminal GST tagged KDR (790 to 1356 end residues) expressed in baculovirus expression system using CSKtide as substrate at 10 uM by mobility shift assay relative to control
# [5] = target: Platelet-derived growth factor receptor alpha (Homo sapiens) (UniProt P16234); experiment: Inhibition of human cytoplasmic domain N-terminal GST tagged PDGFR alpha (550 to 1089 residues) expressed in baculovirus expression system using CSKtide as substrate at 10 uM by mobility shift assay relative to control
# [6] = target: Protein-tyrosine kinase 2-beta (Homo sapiens) (UniProt Q14289); experiment: Inhibition of full length human N-terminal GST tagged PYK2 (1 to 967 end residues) expressed in baculovirus expression system using Blk/lyntide as substrate at 10 uM by mobility shift assay relative to control
# [7] = target: Proto-oncogene tyrosine-protein kinase Src (Homo sapiens) (UniProt P12931); experiment: Inhibition of full length human N-terminal GST tagged SRC (1 to 536 end residues) expressed in baculovirus expression system using Srctide as substrate at 10 uM by mobility shift assay relative to control
# [8] = target: High affinity nerve growth factor receptor (Homo sapiens) (UniProt P04629); experiment: Inhibition of human cytoplasmic domain N-terminal GST tagged TRKA (436 to 790 end residues) expressed in baculovirus expression system using CSKtide as substrate at 10 uM by mobility shift assay relative to control
# [9] = target: AMP-activated protein kinase (AMPK) alpha-1/beta-1/gamma-1 (Homo sapiens) (UniProt P54619+Q9Y478+Q13131); experiment: Inhibition of full length human N-terminal GST tagged AMPK alpha1(1 to 550 end residues)/beta1 (1 to 270 end residues)/gamma1 (1 to 331 end residues) expressed in baculovirus expression system using SAMS peptide as substrate at 10 uM by mobility shift assay relative to control
# [10] = target: Death-associated protein kinase 1 (Homo sapiens) (UniProt P53355); experiment: Inhibition of human catalytic domain N-terminal GST tagged DAPK1 (1 to 289 residues) expressed in baculovirus expression system using DAPK1tide as substrate at 10 uM by mobility shift assay relative to control
# [11] = target: Mitogen-activated protein kinase kinase kinase kinase 4 (Homo sapiens) (UniProt O95819); experiment: Inhibition of human catalytic domain N-terminal GST tagged HGK (1 to 328 residues) expressed in baculovirus expression system using moesin-derived peptide as substrate at 10 uM by mobility shift assay relative to control
# [12] = target: Mitogen-activated protein kinase 9 (Homo sapiens) (UniProt P45984); experiment: Inhibition of human catalytic domain N-terminal GST tagged JNK2 (1 to 364 residues) expressed in Escherichia coli expression system using modified Erktide as substrate at 10 uM by mobility shift assay relative to control
# [13] = target: Serine/threonine-protein kinase pim-1 (Homo sapiens) (UniProt P11309); experiment: Inhibition of full length human N-terminal his-tagged PIM1 (1 to 313 end residues) expressed in baculovirus expression system using S6K2 peptide as substrate at 10 uM by mobility shift assay relative to control
# [14] = target: Protein kinase C alpha type (Homo sapiens) (UniProt P17252); experiment: Inhibition of full length human N-terminal GST tagged PKC alpha (1 to 672 end residues) expressed in baculovirus expression system using PKC as peptide at 10 uM by mobility shift assay relative to control
# [15] = target: Serine/threonine-protein kinase D2 (Homo sapiens) (UniProt Q9BZL6); experiment: Inhibition of full length human N-terminal GST tagged PKD2 (1 to 878 end residues) expressed in baculovirus expression system using GS as peptide at 10 uM by mobility shift assay relative to control
# [16] = target: Serotonin 3 (5-HT3) receptor (Homo sapiens) (UniProt P46098+A5X5Y0+O95264+Q70Z44+Q8WXA8); experiment: Inhibition of 5-HT3 receptor (unknown origin) at 10 uM by radioligand binding assay relative to control; format: protein-complex assay
# [17] = target: 5-hydroxytryptamine receptor 6 (Homo sapiens) (UniProt P50406); experiment: Inhibition of 5-HT6 receptor (unknown origin) at 10 uM by radioligand binding assay relative to control
# [18] = target: Alpha-1B adrenergic receptor (Homo sapiens) (UniProt P35368); experiment: Inhibition of Alpha1B receptor (unknown origin) at 10 uM by radioligand binding assay relative to control
# [19] = target: Beta-3 adrenergic receptor (Homo sapiens) (UniProt P13945); experiment: Inhibition of Beta3receptor (unknown origin) at 10 uM by radioligand binding assay relative to control
# [20] = target: Sodium-dependent dopamine transporter (Homo sapiens) (UniProt Q01959); experiment: Inhibition of DAT (unknown origin) at 10 uM by radioligand binding assay relative to control
# [21] = target: Kappa-type opioid receptor (Homo sapiens) (UniProt P41145); experiment: Inhibition of KOR (unknown origin) at 10 uM by radioligand binding assay relative to control
# [22] = target: Mu-type opioid receptor (Homo sapiens) (UniProt P35372); experiment: Inhibition of MOR (unknown origin) at 10 uM by radioligand binding assay relative to control
# [23] = target: Protein arginine N-methyltransferase 3 (Homo sapiens, UniProt O60678); experiment: Inhibition of PRMT3 (unknown origin) using [3H-SAM] as substrate incubated for 1 hr by scintillation proximity assay
# [24] = target: DNA (cytosine-5)-methyltransferase 1 (Homo sapiens, UniProt P26358); experiment: Inhibition of DNMT1 (unknown origin) using hemimethylated dsDNA as substrate incubated for 1 hr by scintillation proximity assay
# DB [25] = experiment: Antiproliferative activity against human DB cells assessed as reduction in cell viability at 5000 nM by cell proliferation assay relative to control; format: functional
# DB [26] = experiment: Antiproliferative activity against human DB cells assessed as reduction in cell viability at 100 to 5000 nM measured after 3 days by cell proliferation assay; format: functional, cell-based; conditions: dose 100-5000 nM, time 3.0 day
# [27] = Cmax in Swiss albino mouse at 15 to 150 mg/kg administered as single ip dose measured upto 24 hrs; format: ADME, organism-based; conditions: in vivo, dose 15-150 mg/kg
# [28] = target: Histone-lysine N-methyltransferase EZH2 (Homo sapiens, UniProt Q15910)
compound,measurement,setting,value
CCCc1cc(C)[nH]c(=O)c1CNC(=O)c1cc(-c2ccc(N3CCN(C(C)C)CC3)nc2)cc2c1cnn2C(C)C,inhibition at 10 µM,[1],-4%
same,inhibition,[2],-9%
same,inhibition,[3],16%
same,inhibition,[4],-2%
same,inhibition,[5],-5%
same,inhibition,[6],-5%
same,inhibition,[7],-1%
same,inhibition,[8],7%
same,inhibition,[9],-3%
same,inhibition,[10],-4%
same,inhibition,[11],-2%
same,inhibition,[12],5%
same,inhibition,[13],1%
same,inhibition,[14],-4%
same,inhibition,[15],5%
same,inhibition,[16],12%
same,inhibition,[17],11%
same,inhibition,[18],6%
same,inhibition,[19],10%
same,inhibition,[20],36%
same,inhibition,[21],34%
same,inhibition,[22],13%
same,IC50,[23],> 100 µM
same,IC50,[24],> 100 µM
same,Activity,DB [25],100%
same,Activity,DB [26],inactive
same,Cmax,[27],9.7 µM
same,Ki,[28],0.0046 µM
